According to ChEMBL document CHEMBL3881526, “Selective androgen receptor modulators and method of use thereof” (2007):
Calls of active or inactive are those of the source. The rule behind the calls is not given here.

Legend:
[1] = Oral bioavailability in beagle dog at 10 mg/kg administered via solution after 72 hrs by HPLC analysis; format: ADME, organism-based, Canis lupus familiaris; conditions: in vivo
[2] = test system: Rattus norvegicus; assay: Androgenic activity in ORX Sprague-Dawley rat assessed as restoration of seminal vesicles weight at 1000 ug/day delivered at constant rate for 14 days via subcutaneous osmotic pumps; format: functional, tissue-based
[3] = test system: Rattus norvegicus; assay: Effect on serum LH in ORX Sprague-Dawley rat at 0.3 mg/day delivered at constant rate for 14 days via subcutaneous osmotic pumps; format: ADME; conditions: sc, 336 h
[4] = test system: Rattus norvegicus; assay: Effect on serum FSH in ORX Sprague-Dawley rat at 0.3 mg/day delivered at constant rate for 14 days via subcutaneous osmotic pumps; format: ADME; conditions: sc, 336 h
[5] = Oral bioavailability in beagle dog at 10 mg/kg administered via capsule after 72 hrs by HPLC analysis; format: ADME, organism-based, Canis lupus familiaris; conditions: in vivo
[6] = test system: Rattus norvegicus; assay: Anabolic activity in ORX Sprague-Dawley rat assessed as restoration of levator ani muscle weight at 0.1 to 1 ug/day delivered at constant rate for 14 days via subcutaneous osmotic pumps; format: functional
[7] = Plasma clearance in beagle dog at 3 mg/kg, iv after 72 hrs by HPLC analysis; format: ADME, organism-based, Canis lupus familiaris
[8] = test system: Rattus norvegicus; assay: Anabolic activity in ORX Sprague-Dawley rat assessed as restoration of levator ani muscle weight at 1000 ug/day delivered at constant rate for 14 days via subcutaneous osmotic pumps; format: functional, tissue-based
[9] = test system: Rattus norvegicus; assay: Androgenic activity in ORX Sprague-Dawley rat assessed as restoration of seminal vesicles weight at 0.1 to 1 ug/day delivered at constant rate for 14 days via subcutaneous osmotic pumps; format: functional
[10] = test system: Rattus norvegicus; assay: Androgenic activity in ORX Sprague-Dawley rat assessed as restoration of prostate weight at 1000 ug/day delivered at constant rate for 14 days via subcutaneous osmotic pumps; format: functional, tissue-based
[11] = test system: Rattus norvegicus; assay: Androgenic activity in ORX Sprague-Dawley rat assessed as restoration of prostate weight at 0.1 to 1 ug/day delivered at constant rate for 14 days via subcutaneous osmotic pumps; format: functional
[12] = Terminal half life in beagle dog at 3 mg/kg, iv after 72 hrs by HPLC analysis; format: ADME, organism-based, Canis lupus familiaris; conditions: in vivo, read-out: beta t1/2 (converted)
[13] = test system: Rattus norvegicus; assay: Reduction in serum cholesterol in female Sprague-Dawley rat at 100 mg/kg, po qd administered for 28 days; format: functional, organism-based
[14] = test system: Homo sapiens; assay: Effect on tissue fat level in healthy human at 10 mg administered daily via mouth for 14 days (reference value: 0.69%); format: functional, Adipose tissue
[15] = test system: Rattus norvegicus; assay: Effect on serum FSH in ORX Sprague-Dawley rat at 0.1 mg/day administered 9 days post ORX via oral gavage for 14 days (reference value: 43.45 +/- 4.97 ng/ml); format: functional
[16] = test system: Homo sapiens; assay: Effect on regional fat level in healthy human at 1 mg administered daily via mouth for 14 days (reference value: 0.64%); format: functional
[17] = test system: Rattus norvegicus; assay: Anabolic activity in ORX Sprague-Dawley rat assessed as restoration of levator ani muscle weight measured after delayed dosing administered 9 days post ORX via oral gavage for 14 days; format: functional
[18] = test system: Rattus norvegicus; assay: Androgenic activity in intact Sprague-Dawley rat assessed as increase in prostate weight at 0.01 mg/day administered via oral gavage for 14 days relative to intact control; format: functional
[19] = Tmax in human plasma at 1 to 100 mg administered as PEG300-based oral solution; format: ADME, cell-free
[20] = test system: Rattus norvegicus; assay: Effect on serum LH in ORX Sprague-Dawley rat at 0.75 mg/day administered 9 days post ORX via oral gavage for 14 days (reference value: 9.66 +/- 1.13 ng/ml); format: functional
[21] = test system: Rattus norvegicus; assay: Effect on serum LH in ORX Sprague-Dawley rat at 1 mg/day administered 9 days post ORX via oral gavage for 14 days (reference value: 9.66 +/- 1.13 ng/ml); format: functional
[22] = species on record: Rattus norvegicus; assay: Effect on serum LH in intact Sprague-Dawley rat at 0.75 mg/day measured for 14 days (reference value: 0.281 +/- 0.126 ng/ml); format: functional
[23] = test system: Rattus norvegicus; assay: Androgenic activity in ORX Sprague-Dawley rat assessed as increase in prostate weight at 0.3 mg/day measured after delayed dosing administered 9 days post ORX via oral gavage for 14 days relative to intact control; format: functional
[24] = test system: Homo sapiens; assay: Effect on fat weight in healthy human at 3 mg administered daily via mouth for 14 days (reference value: 436 g); format: functional
[25] = test system: Homo sapiens; assay: Effect on bone mineral content in healthy human at 3 mg administered daily via mouth for 14 days (reference value: 36.47 g); format: functional
[26] = test system: Homo sapiens; assay: Effect on regional fat level in healthy human at 3 mg administered daily via mouth for 14 days (reference value: 0.64%); format: functional
[27] = Tmax in human plasma at 1 to 100 mg administered as solid oral dosage; format: ADME, cell-free
[28] = species on record: Rattus norvegicus; assay: Effect on serum FSH in intact Sprague-Dawley rat at 0.1 mg/day measured for 14 days (reference value: 6.40 +/- 1.58 ng/ml); format: functional
[29] = test system: Homo sapiens; assay: Effect on lean weight level in truncal obese human at 3 mg administered daily via mouth for 14 days (reference value: 436.47 g); format: functional
[30] = species on record: Rattus norvegicus; assay: Effect on serum LH in intact Sprague-Dawley rat at 1 mg/day measured for 14 days (reference value: 0.281 +/- 0.126 ng/ml); format: functional
[31] = species on record: Rattus norvegicus; assay: Effect on serum FSH in intact Sprague-Dawley rat at 1 mg/day measured for 14 days (reference value: 6.40 +/- 1.58 ng/ml); format: functional
[32] = test system: Rattus norvegicus; assay: Androgenic activity in ORX Sprague-Dawley rat assessed as increase in prostate weight at 0.01 mg/day measured after delayed dosing administered 9 days post ORX via oral gavage for 14 days relative to intact control; format: functional
[33] = test system: Homo sapiens; assay: Effect on tissue weight in healthy human at 3 mg administered daily via mouth for 14 days (reference value: -8.24 g); format: functional
[34] = test system: Rattus norvegicus; assay: Androgenic activity in ORX Sprague-Dawley rat assessed as restoration in seminal vesicle weight at 0.01 mg/day measured after delayed dosing administered 9 days post ORX via oral gavage for 14 days relative to intact control; format: functional
[35] = test system: Homo sapiens; assay: Effect on fat weight in healthy human at 1 mg administered daily via mouth for 14 days (reference value: 436 g); format: functional
[36] = test system: Rattus norvegicus; assay: Effect on serum LH in ORX Sprague-Dawley rat at 0.01 mg/day administered 9 days post ORX via oral gavage for 14 days (reference value: 9.66 +/- 1.13 ng/ml); format: functional
[37] = test system: Rattus norvegicus; assay: Anabolic activity in ORX Sprague-Dawley rat assessed as increase in levator ani muscle weight at 0.1 mg/day measured after delayed dosing administered 9 days post ORX via oral gavage for 14 days relative to intact control; format: functional
[38] = test system: Homo sapiens; assay: Effect on lean weight level in healthy human at 10 mg administered daily via mouth for 14 days (reference value: 436.47 g); format: functional
[39] = test system: Rattus norvegicus; assay: Androgenic activity in ORX Sprague-Dawley rat assessed as restoration in seminal vesicle weight at 0.03 mg/day measured after delayed dosing administered 9 days post ORX via oral gavage for 14 days relative to intact control; format: functional
[40] = test system: Homo sapiens; assay: Effect on fat weight in healthy human at 10 mg administered daily via mouth for 14 days (reference value: 436 g); format: functional
[41] = test system: Homo sapiens; assay: Effect on tissue weight in healthy human at 10 mg administered daily via mouth for 14 days (reference value: -8.24 g); format: functional
[42] = test system: Rattus norvegicus; assay: Increase in femoral maximum load in OVX Sprague-Dawley rat at 3 mg/day administered daily co-treated with 1 mg/day alendronate by oral gavage measured after 45 days; format: functional
[43] = test system: Rattus norvegicus; assay: Effect on serum FSH in ORX Sprague-Dawley rat at 1 mg/day administered 9 days post ORX via oral gavage for 14 days (reference value: 43.45 +/- 4.97 ng/ml); format: functional
[44] = test system: Rattus norvegicus; assay: Androgenic activity in ORX Sprague-Dawley rat assessed as restoration of prostate weight measured after delayed dosing administered 9 days post ORX via oral gavage for 14 days; format: functional
[45] = test system: Homo sapiens; assay: Effect on tissue fat level in truncal obese human at 30 mg administered daily via mouth for 14 days (reference value: 0.69%); format: functional, Adipose tissue
[46] = test system: Rattus norvegicus; assay: Androgenic activity in ORX Sprague-Dawley rat assessed as restoration in seminal vesicle weight at 0.3 mg/day measured after delayed dosing administered 9 days post ORX via oral gavage for 14 days relative to intact control; format: functional
[47] = test system: Homo sapiens; assay: Effect on regional fat level in healthy human at 30 mg administered daily via mouth for 14 days (reference value: 0.64%); format: functional
[48] = species on record: Rattus norvegicus; assay: Effect on serum FSH in intact Sprague-Dawley rat at 0.75 mg/day measured for 14 days (reference value: 6.40 +/- 1.58 ng/ml); format: functional
[49] = Terminal half life in human at 1 to 100 mg administered as PEG300-based solution after 72 hrs; format: ADME; conditions: in vivo, read-out: beta t1/2
[50] = test system: Rattus norvegicus; assay: Reduction in serum cholesterol in male Sprague-Dawley rat at 3 mg/kg, po qd administered for 28 days; format: functional; set-up: scale not given: the % may be the effect or the level left
[51] = test system: Bone marrow cell; assay: Induction of differentiation of rat primary bone marrow cells toward osteoblast lineage assessed as ALP activity at 1 uM by spectrophotometric analysis; format: functional, cell-based
[52] = test system: Rattus norvegicus; assay: Induction of […] bone density in OVX Sprague-Dawley rat at 3 mg/day administered daily by oral gavage measured after 45 days (reference value: 215 mg/mm'3); format: functional
[53] = test system: Rattus norvegicus; assay: Effect on serum LH in ORX Sprague-Dawley rat at 0.3 mg/day administered 9 days post ORX via oral gavage for 14 days (reference value: 9.66 +/- 1.13 ng/ml); format: functional
[54] = Drug uptake in human plasma at 1 to 100 mg administered as PEG300-based solution after 72 hrs; format: ADME, cell-free
[55] = species on record: Rattus norvegicus; assay: Effect on serum LH in intact Sprague-Dawley rat at 0.3 mg/day measured for 14 days (reference value: 0.281 +/- 0.126 ng/ml); format: functional
[56] = test system: Rattus norvegicus; assay: Androgenic activity in ORX Sprague-Dawley rat assessed as increase in prostate weight at 0.75 mg/day measured after delayed dosing administered 9 days post ORX via oral gavage for 14 days relative to intact control; format: functional
[57] = test system: Homo sapiens; assay: Effect on lean weight level in healthy human at 3 mg administered daily via mouth for 14 days (reference value: 436.47 g); format: functional
[58] = test system: Bone marrow cell; assay: Induction of differentiation of rat primary bone marrow cells toward osteoblast lineage assessed as ALP activity at 10 nM to 100 nM by spectrophotometric analysis; format: functional, cell-based
[59] = test system: Rattus norvegicus; assay: Androgenic activity in ORX Sprague-Dawley rat assessed as restoration in seminal vesicle weight at 1 mg/day measured after delayed dosing administered 9 days post ORX via oral gavage for 14 days relative to intact control; format: functional
[60] = test system: Rattus norvegicus; assay: Induction of […] bone density in ovary intact Sprague-Dawley rat at 3 mg/day administered daily by oral gavage measured after 45 days (reference value: 379 mg/mm'3); format: functional
[61] = test system: Homo sapiens; assay: Effect on lean weight level in truncal obese human at 30 mg administered daily via mouth for 14 days (reference value: 436.47 g); format: functional
[62] = species on record: Rattus norvegicus; assay: Effect on serum LH in intact Sprague-Dawley rat at 0.1 mg/day measured for 14 days (reference value: 0.281 +/- 0.126 ng/ml); format: functional

CC(=O)Nc1ccc(OC[C@](C)(O)C(=O)Nc2ccc([N+](=O)[O-])c(C(F)(F)F)c2)cc1
bioavailability [1]: 38%
Activity [2]: Active
Activity [3]: Non-Toxic
Activity [4]: Non-Toxic
bioavailability [5]: 19%
Activity [6]: Dose-dependent effect
clearance [7]: 4.4 mL/min/kg
Activity [8]: Active
Activity [9]: Dose-dependent effect
Activity [10]: Active
Activity [11]: Dose-dependent effect
half-life [12]: 4 h

CC(O)(COc1ccc(C#N)cc1)C(=O)Nc1ccc(C#N)c(C(F)(F)F)c1 (stereo not drawn)
Activity [13]: Active
Activity [14]: 0.1%
Activity [15]: 20.69 ng/mL
Activity [16]: 0.23%
ED50 [17]: 0.013 mg/kg
Activity [18]: Active
Tmax [19]: 0.8 to 2.3 h
Activity [20]: Below limit of detection
Activity [21]: Below limit of detection
Activity [22]: Below limit of detection
Activity [23]: 50%
Activity [24]: -22.67 g
Activity [25]: -32.22 g
Activity [26]: -0.22%
Tmax [27]: 3.2 to 3.9 h
Activity [28]: 6.6 ng/mL
Activity [29]: 1569.44 g
Activity [30]: Below limit of detection
Activity [31]: 4.38 ng/mL
Activity [32]: 9%
Activity [33]: 728.89 g
Activity [34]: 7%
Activity [35]: 197.89 g
Activity [36]: 8.45 ng/mL
Activity [37]: 103%
Activity [38]: 368.67 g
Activity [39]: 9%
Activity [40]: 197.44 g
Activity [41]: 566.22 g
Activity [42]: 207 N
Activity [43]: 6.33 ng/mL
ED50 [44]: 0.22 mg/kg
Emax [44]: 75%
Activity [45]: -0.13%
Activity [46]: 49%
Activity [47]: 0.95%
Activity [48]: 4.3 ng/mL
half-life [49]: 19 to 22 h
Activity [50]: 30%
Activity [51]: Active
Activity [52]: 406 mg/mm3
Activity [53]: Below limit of detection
Drug uptake [54]: Active
Activity [55]: Below limit of detection
Activity [56]: 62%
Activity [57]: 752.11 g
Activity [58]: Active
Activity [59]: 67%
Activity [60]: 398 mg/mm3
Activity [61]: 261 g
Activity [62]: 0.177 ng/mL
